# Measured values taken from ChEMBL document CHEMBL1143055, “2,3,5-Substituted tetrahydrofurans as cancer chemopreventives. Part 1: synthesis and anti-cancer activities of 5-hydroxymethyl-2,3-diaryl-tetrahydro-furan-3-ols” (2007).
# What was measured:
# SF-539 = experiment: Antitumor activity against human SF539 cells; assay type: functional
# HCT-15 = experiment: Antitumor activity against human HCT15 cells; assay type: functional
# SF-268 = experiment: Antitumor activity against human SF268 cells; assay type: functional
# A498 = experiment: Antitumor activity against human A498 cells; assay type: functional
# NCI-H460 = experiment: Antitumor activity against human NCI-H460 cells; assay type: functional
# DU-145 = experiment: Antitumor activity against human DU145 cells; assay type: functional
# PC-3 = experiment: Antitumor activity against human PC3 cells; assay type: functional
# ACHN = experiment: Antitumor activity against human ACHN cells; assay type: functional
# OVCAR-4 = experiment: Antitumor activity against human OVCAR4 cells; assay type: functional
# [1] = Antitumor activity against human NCI-H322 cells; assay type: functional
# U-251 = experiment: Antitumor activity against human U251 cells; assay type: functional
# A549 = experiment: Antitumor activity against human A549 cells; assay type: functional
# MOLT-4 = experiment: Antitumor activity against human MOLT4 cells; assay type: functional
# RPMI-8226 = experiment: Antitumor activity against human RPMI8226 cells; assay type: functional
# COLO 205 = experiment: Antitumor activity against human COLO205 cells; assay type: functional
# NCI-H226 = experiment: Antitumor activity against human NCI-H226 cells; assay type: functional
# [2] = Antitumor activity against human […] cells; assay type: functional
# 786-0 = experiment: Antitumor activity against human 786-0 cells; assay type: functional
# OVCAR-8 = experiment: Antitumor activity against human OVCAR8 cells; assay type: functional
# OVCAR-3 = experiment: Antitumor activity against human OVCAR-3 cells; assay type: functional
# SR [3] = experiment: Growth inhibition of human SR cells at 1 uM; assay type: functional
# EKVX = experiment: Antitumor activity against human EKVX cells; assay type: functional
# SNB-19 = experiment: Antitumor activity against human SNB19 cells; assay type: functional
# NCI-H23 = experiment: Antitumor activity against human NCI-H23 cells; assay type: functional
# [4] = Antitumor activity against human HS 578T cells; assay type: functional
# SNB-75 = experiment: Antitumor activity against human SNB75 cells; assay type: functional
# CCRF-CEM [5] = experiment: Antitumor activity against human CCRF-CEM cells; assay type: functional
# NCI/ADR-RES = experiment: Antitumor activity against human NCI/ADR-RES cells; assay type: functional
# UO-31 = experiment: Antitumor activity against human UO31 cells; assay type: functional
# [6] = Growth inhibition of human HS 578T cells at 10 nM; assay type: functional
# HCT-116 = experiment: Antitumor activity against human HCT116 cells; assay type: functional
# LOX IMVI = experiment: Antitumor activity against human LOX IMVI cells; assay type: functional
# SK-MEL-28 = experiment: Antitumor activity against human SK-MEL-28 cells; assay type: functional
# RXF 393 = experiment: Antitumor activity against human RXF393 cells; assay type: functional
# CAKI-1 = experiment: Antitumor activity against human CAKI-1 cells; assay type: functional
# MCF7 = experiment: Antitumor activity against human MCF7 cells; assay type: functional
# K562 = experiment: Antitumor activity against human K562 cells; assay type: functional
# SN12C = experiment: Antitumor activity against human SN12C cells; assay type: functional
# BT-549 = experiment: Antitumor activity against human BT549 cells; assay type: functional
# TK-10 = experiment: Antitumor activity against human TK10 cells; assay type: functional
# OVCAR-5 = experiment: Antitumor activity against human OVCAR5 cells; assay type: functional
# HOP-92 [7] = experiment: Antitumor activity against human HOP92 cells; assay type: functional
# SK-MEL-5 = experiment: Antitumor activity against human SK-MEL-5 cells; assay type: functional
# MDA-MB-435 = experiment: Antitumor activity against human MDA-MB-435 cells; assay type: functional
# NCI-H522 = experiment: Antitumor activity against human NCI-H522 cells; assay type: functional
# CCRF-CEM [8] = experiment: Growth inhibition of huam CCRF-CEM at 1 uM; assay type: functional; conditions: Homo sapiens
# [9] = Antitumor activity against human HL60 (TB) cells; assay type: functional, HL-60(TB); conditions: HL-60
# SR [10] = experiment: Antitumor activity against human SR cells; assay type: functional
# SW-620 = experiment: Antitumor activity against human SW620 cells; assay type: functional
# SK-OV-3 = experiment: Antitumor activity against human SK-OV-3 cells; assay type: functional
# UACC-62 = experiment: Antitumor activity against human UACC62 cells; assay type: functional
# Malme-3M = experiment: Antitumor activity against human MALME-3M cells; assay type: functional
# SF-295 = experiment: Antitumor activity against human SF295 cells; assay type: functional
# HT-29 = experiment: Antitumor activity against human HT29 cells; assay type: functional
# UACC-257 = experiment: Antitumor activity against human UACC257 cells; assay type: functional
# KM12 = experiment: Antitumor activity against human KM12 cells; assay type: functional
# HOP-62 = experiment: Antitumor activity against human HOP62 cells; assay type: functional
# HCC 2998 = experiment: Antitumor activity against human HCC2998 cells; assay type: functional
# IGROV-1 = experiment: Antitumor activity against human IGROV1 cells; assay type: functional
# [11] = Growth inhibition of human HS 578T cells at 0.1 uM; assay type: functional
# HOP-92 [12] = experiment: Growth inhibition of human HOP92 cells at 10 nM; assay type: functional
structure (smiles),measurement,setting,value
OC[C@H]1C[C@](O)(c2ccc(Cl)cc2)[C@@H](c2ccc(Cl)cc2)O1 (relative stereo),GI50,SF-539,23.4 µM
same,GI50,HCT-15,31.6 µM
same,GI50,SF-268,26.9 µM
same,GI50,A498,24.5 µM
same,GI50,NCI-H460,20 µM
same,GI50,DU-145,21.9 µM
same,GI50,PC-3,20 µM
same,GI50,ACHN,28.2 µM
same,GI50,OVCAR-4,32.4 µM
same,GI50,[1],35.5 µM
same,GI50,U-251,24.5 µM
same,GI50,A549,29.5 µM
same,GI50,MOLT-4,17.8 µM
same,GI50,RPMI-8226,13.8 µM
same,GI50,COLO 205,25.7 µM
same,GI50,NCI-H226,26.3 µM
same,GI50,[2],19.5 µM
same,GI50,786-0,22.4 µM
same,GI50,OVCAR-8,30.9 µM
same,GI50,OVCAR-3,26.3 µM
same,inhibition at 1 µM,SR [3],87%
same,GI50,EKVX,18.2 µM
same,GI50,SNB-19,38 µM
same,GI50,NCI-H23,24.5 µM
same,GI50,[4],18.2 µM
same,GI50,SNB-75,22.9 µM
same,GI50,CCRF-CEM [5],0.468 µM
same,GI50,NCI/ADR-RES,30.2 µM
same,GI50,UO-31,19.5 µM
same,inhibition at 0.01 µM,[6],21%
same,GI50,HCT-116,17.4 µM
same,GI50,LOX IMVI,17.8 µM
same,GI50,SK-MEL-28,28.8 µM
same,GI50,RXF 393,20.9 µM
same,GI50,CAKI-1,26.9 µM
same,GI50,MCF7,30.2 µM
same,GI50,K562,25.1 µM
same,GI50,SN12C,17 µM
same,GI50,BT-549,16.6 µM
same,GI50,TK-10,30.2 µM
same,GI50,OVCAR-5,25.7 µM
same,GI50,HOP-92 [7],17 µM
same,GI50,SK-MEL-5,15.1 µM
same,GI50,MDA-MB-435,22.9 µM
same,GI50,NCI-H522,26.3 µM
same,inhibition at 1 µM,CCRF-CEM [8],71%
same,GI50,[9],17.4 µM
same,GI50,SR [10],20.4 µM
same,GI50,SW-620,27.5 µM
same,GI50,SK-OV-3,39.8 µM
same,GI50,UACC-62,15.8 µM
same,GI50,Malme-3M,21.4 µM
same,GI50,SF-295,30.2 µM
same,GI50,HT-29,24 µM
same,GI50,UACC-257,21.4 µM
same,GI50,KM12,20.4 µM
same,GI50,HOP-62,20.9 µM
same,GI50,HCC 2998,24 µM
CS(=O)(=O)c1ccc([C@H]2O[C@@H](CO)C[C@]2(O)c2ccc(S(C)(=O)=O)cc2)cc1 (relative stereo),GI50,SF-539,> 100 µM
same,GI50,HCT-15,> 100 µM
same,GI50,SF-268,> 100 µM
same,GI50,A498,> 100 µM
same,GI50,NCI-H460,> 100 µM
same,GI50,DU-145,> 100 µM
same,GI50,PC-3,> 100 µM
same,GI50,ACHN,> 100 µM
same,GI50,OVCAR-4,> 100 µM
same,GI50,[1],> 100 µM
same,GI50,U-251,> 100 µM
same,GI50,A549,> 100 µM
same,GI50,MOLT-4,> 100 µM
same,GI50,RPMI-8226,> 100 µM
same,GI50,COLO 205,> 100 µM
same,GI50,NCI-H226,> 100 µM
same,GI50,[2],> 100 µM
same,GI50,786-0,> 100 µM
same,GI50,OVCAR-8,> 100 µM
same,GI50,OVCAR-3,> 100 µM
same,GI50,EKVX,> 100 µM
same,GI50,SNB-19,> 100 µM
same,GI50,NCI-H23,> 100 µM
same,GI50,[4],> 100 µM
same,GI50,SNB-75,> 100 µM
same,GI50,CCRF-CEM [5],> 100 µM
same,GI50,NCI/ADR-RES,> 100 µM
same,GI50,UO-31,> 100 µM
same,GI50,HCT-116,> 100 µM
same,GI50,LOX IMVI,> 100 µM
same,GI50,SK-MEL-28,> 100 µM
same,GI50,RXF 393,> 100 µM
same,GI50,CAKI-1,> 100 µM
same,GI50,MCF7,> 100 µM
same,GI50,K562,> 100 µM
same,GI50,SN12C,> 100 µM
same,GI50,BT-549,> 100 µM
same,GI50,TK-10,> 100 µM
same,GI50,OVCAR-5,> 100 µM
same,GI50,HOP-92 [7],> 100 µM
same,GI50,SK-MEL-5,> 100 µM
same,GI50,MDA-MB-435,> 100 µM
same,GI50,NCI-H522,> 100 µM
same,GI50,[9],> 100 µM
same,GI50,SR [10],> 100 µM
same,GI50,IGROV-1,> 100 µM
same,GI50,SW-620,> 100 µM
same,GI50,SK-OV-3,> 100 µM
same,GI50,UACC-62,> 100 µM
same,GI50,Malme-3M,> 100 µM
same,GI50,SF-295,> 100 µM
same,GI50,HT-29,> 100 µM
same,GI50,UACC-257,> 100 µM
same,GI50,KM12,> 100 µM
same,GI50,HOP-62,> 100 µM
same,GI50,HCC 2998,> 100 µM
OC[C@H]1C[C@](O)(c2ccc(F)cc2)[C@@H](c2ccc(F)cc2)O1 (relative stereo),GI50,SF-539,> 100 µM
same,GI50,HCT-15,> 100 µM
same,GI50,SF-268,> 100 µM
same,GI50,A498,> 100 µM
same,GI50,NCI-H460,> 100 µM
same,GI50,DU-145,> 100 µM
same,GI50,PC-3,> 100 µM
same,GI50,ACHN,> 100 µM
same,GI50,OVCAR-4,> 100 µM
same,GI50,[1],> 100 µM
same,GI50,U-251,> 100 µM
same,GI50,A549,> 100 µM
same,GI50,MOLT-4,100 µM
same,GI50,RPMI-8226,> 100 µM
same,GI50,COLO 205,> 100 µM
same,GI50,NCI-H226,> 100 µM
same,GI50,[2],> 100 µM
same,GI50,786-0,> 100 µM
same,GI50,OVCAR-8,> 100 µM
same,GI50,OVCAR-3,> 100 µM
same,GI50,EKVX,> 100 µM
same,GI50,SNB-19,> 100 µM
same,GI50,NCI-H23,> 100 µM
same,GI50,[4],44.7 µM
same,GI50,SNB-75,> 100 µM
same,GI50,CCRF-CEM [5],> 100 µM
same,GI50,NCI/ADR-RES,> 100 µM
same,GI50,UO-31,> 100 µM
same,GI50,HCT-116,91.2 µM
same,GI50,LOX IMVI,> 100 µM
same,GI50,SK-MEL-28,> 100 µM
same,GI50,RXF 393,52.5 µM
same,GI50,CAKI-1,> 100 µM
same,GI50,MCF7,> 100 µM
same,GI50,K562,> 100 µM
same,GI50,SN12C,> 100 µM
same,GI50,BT-549,> 100 µM
same,GI50,TK-10,> 100 µM
same,GI50,OVCAR-5,> 100 µM
same,GI50,HOP-92 [7],66.1 µM
same,GI50,SK-MEL-5,> 100 µM
same,GI50,MDA-MB-435,> 100 µM
same,GI50,NCI-H522,> 100 µM
same,GI50,[9],> 100 µM
same,inhibition at 0.1 µM,[11],29%
same,inhibition at 0.01 µM,HOP-92 [12],13%
same,GI50,SR [10],> 100 µM
same,GI50,IGROV-1,58.9 µM
same,GI50,SW-620,> 100 µM
same,GI50,SK-OV-3,> 100 µM
same,GI50,UACC-62,> 100 µM
same,GI50,Malme-3M,> 100 µM
same,GI50,SF-295,> 100 µM
same,GI50,HT-29,> 100 µM
same,GI50,UACC-257,> 100 µM
same,GI50,KM12,> 100 µM
same,GI50,HOP-62,> 100 µM
same,GI50,HCC 2998,> 100 µM
